In patent US20120277161A1, “INHIBITION OF MULTIPLE CELL ACTIVATION PATHWAYS” (INTER-K PTY LIMITED, priority 2009, published 2012):

What was measured:
PI3K P110δ = PI3K P110δ (Homo sapiens, UniProt O00329); test: PI3K HTRF activity assay; assay type: biochemical
Description: In a final reaction volume of 20 μL, the test PI3K is incubated in assay buffer containing 10 μM phosphatidylinositol-4,5-bisphosphate and MgATP. The reaction is initiated by the addition of the MgATP mix. After incubation for 30 minutes at room temperature, the reaction is stopped by the addition of 5 μL of stop solution containing EDTA and biotinylated phosphatidylinositol-3,4,5-trisphosphate. Finally, 5 μL of detection buffer is added (containing europium-labelled anti-GST monoclonal antibody, GST-tagged GRP1 PH domain and streptavidin-allophycocyanin). The test plate is then read in time-resolved fluorescence mode and the homogenous time-resolved fluorescence (HTRF) signal is determined according to the formula HTRF=10000×(Em665 nm/Em620 nm).

MEK1 (h) = MEK1 (h) (Homo sapiens, UniProt Q02750); test: MEK1 kinase activity assay; assay type: biochemical
Description: The reaction is initiated by the addition of the MgATP. After incubation for 40 minutes at room temperature, 5 μL of this incubation mix is used to initiate an ERK2 (m) assay.

PKB beta = PKB beta (Homo sapiens, UniProt P31751); test: PKB kinase activity assay; assay type: biochemical
Description: (§1) In a final reaction volume of 25 μL, PKB(h) (5-10 mU) is incubated with 8 mM MOPS pH 7.0, 0.2 mM EDTA, 30 μM GRPRTSSFAEGKK (SEQ ID No. 26), 10 mM MgAcetate and [γ-33P-ATP] (specific activity approx. 500 cpm/pmol, concentration as required). The reaction is initiated by the addition of the MgATP mix. After incubation for 40 minutes at room temperature, the reaction is stopped by the addition of 5 μL of a 3% phosphoric acid solution. 10 μL of the reaction mixture is then spotted onto a P30 filtermat and washed three times for 5 minutes in 75 mM phosphoric acid and once in methanol prior to drying and scintillation counting.

PKB gamma = PKB gamma (Homo sapiens, UniProt Q9Y243); test: PKB kinase activity assay; assay type: biochemical
Description: as §1

PKC alpha = PKC alpha (Homo sapiens, UniProt P17252); test: PKC kinase activity assay; assay type: biochemical
Description: (§2) In a final reaction volume of […] PKC kinase (h) (5-10 mU) is incubated with 20 mM HEPES pH 7.4, 0.03% Triton X-100, […], 0.1 mg/mL phosphatidylserine, 10 μg/mL diacylglycerol, 0.1 mg/mL histone H1 or 50 μM of the peptide ERMRPRKRQGSVRRRV (SEQ ID No. 20), 10 mM MgAcetate and [γ-33P-ATP] (specific activity approx. 500 cpm/pmol, concentration as required). The reaction is initiated by the addition of the MgATP mix. After incubation for 40 minutes at room temperature, the reaction is stopped by the addition of 5 μL of a 3% phosphoric acid solution. 10 μL of the reaction is then spotted onto a P30 filtermat and washed three times for 5 minutes in 75 mM phosphoric acid and once in methanol prior to drying and scintillation counting.

PKC beta I = PKC beta I (Homo sapiens, UniProt P05771); test: PKC kinase activity assay; assay type: biochemical
Description: as §2

PKC beta II = PKC beta II (Homo sapiens, UniProt P05771); test: PKC kinase activity assay; assay type: biochemical
Description: as §2

[1] = system: HT29 human colon cancer cells; test: Cell proliferation (MTT) assay, HT29 cells; assay type: cell-based; details: MTT, 48 hours
Description: 6.1 Cell Proliferation (MTT) Assay Single cell suspensions of viable trypsinised cells were seeded into 96-well tissue culture plates at a density of 2×10^3 cells per well in a volume of 100 μl of a suitable culture media supplemented with heat inactivated foetal calf serum (FCS) (e.g., Dulbecco's Modified Eagles Medium (DMEM), with 10% v/v FCS, 1% L-glutamine, 2% (v/v) Hepes, and antibiotics). A set of triplicate wells was prepared for each concentration of the peptide dendrimer being tested. Additional sample wells containing untreated cells or media alone were set up in each treatment plate and processed in parallel as reference controls. A zero-time plate of untreated cells and media-alone wells was simultaneously prepared and an MTT assay carried out on this plate at the time of addition of the kinase inhibitor (i.e., polypeptide or dendrimer) to treatment plates. All plates were cultured for 24 hours before addition of the test dendrimer.
To prepare the MTT solution 100 mg of MTT (3-(4,5-dimethylthiazolyl-2)-2,5-diphenyltetrazolium bromide) (Cat #. M-128, Sigma, St Louis Mo.), is mixed with 20 ml of PBS at pH 7.4. The resulting solution is filter sterilized (0.2 μM syringe filter) and stored at 4° C. protected from light until use. MTT substrate is cleaved in growing cells to yield a water insoluble salt. After solubilisation of the salt crystals, a coloured product is produced the measurement of which allows quantitation of the proliferative activity of the cultured cells.
Appropriate concentrations of the kinase inhibitor were prepared by dilution of freshly prepared sterile 1 mM stock solutions into cell culture media to give a final well volume of 200 μl containing 10% v/v FCS. The zero-plate was processed by addition of MTT at this time. Cell culture was continued for a further 24 or 48 hours before addition of 20 μl of MTT in PBS (5 mg/ml, 0.2 um filter sterilised). The MTT cell proliferation assay measures cell proliferation rate and, in instances where cell viability is compromised, the assay indicates a comparative reduction in cell viability. After a 3 hour incubation in the presence of MTT (5% CO2 in air at 37° C.), plates were centrifuged at 450 g for 5 minutes, supernatant was removed by gentle suction and precipitated tetrazolium salt resuspended into 150 μl DMSO:glycine (0.1M glycine, 0.1M NaCl pH 10.5) (6:1 v/v) solution. Plates were gently vortexed to complete solubilisation of crystalline material and absorbance was read at 550 nm using a microplate reader. Sample data were processed to determine the comparative growth of treated samples relative to untreated controls.
HT29 cells were cultured for 48 hours in the presence of selected dendrimers and proliferation of the cells was assessed by MTT assay essentially as described in Example 6.1. The results were calculated as percentage proliferation of control cells (not treated with dendrimer).

PI3K P110δ, sequence (O00329 whole entry, the tested form may be a part): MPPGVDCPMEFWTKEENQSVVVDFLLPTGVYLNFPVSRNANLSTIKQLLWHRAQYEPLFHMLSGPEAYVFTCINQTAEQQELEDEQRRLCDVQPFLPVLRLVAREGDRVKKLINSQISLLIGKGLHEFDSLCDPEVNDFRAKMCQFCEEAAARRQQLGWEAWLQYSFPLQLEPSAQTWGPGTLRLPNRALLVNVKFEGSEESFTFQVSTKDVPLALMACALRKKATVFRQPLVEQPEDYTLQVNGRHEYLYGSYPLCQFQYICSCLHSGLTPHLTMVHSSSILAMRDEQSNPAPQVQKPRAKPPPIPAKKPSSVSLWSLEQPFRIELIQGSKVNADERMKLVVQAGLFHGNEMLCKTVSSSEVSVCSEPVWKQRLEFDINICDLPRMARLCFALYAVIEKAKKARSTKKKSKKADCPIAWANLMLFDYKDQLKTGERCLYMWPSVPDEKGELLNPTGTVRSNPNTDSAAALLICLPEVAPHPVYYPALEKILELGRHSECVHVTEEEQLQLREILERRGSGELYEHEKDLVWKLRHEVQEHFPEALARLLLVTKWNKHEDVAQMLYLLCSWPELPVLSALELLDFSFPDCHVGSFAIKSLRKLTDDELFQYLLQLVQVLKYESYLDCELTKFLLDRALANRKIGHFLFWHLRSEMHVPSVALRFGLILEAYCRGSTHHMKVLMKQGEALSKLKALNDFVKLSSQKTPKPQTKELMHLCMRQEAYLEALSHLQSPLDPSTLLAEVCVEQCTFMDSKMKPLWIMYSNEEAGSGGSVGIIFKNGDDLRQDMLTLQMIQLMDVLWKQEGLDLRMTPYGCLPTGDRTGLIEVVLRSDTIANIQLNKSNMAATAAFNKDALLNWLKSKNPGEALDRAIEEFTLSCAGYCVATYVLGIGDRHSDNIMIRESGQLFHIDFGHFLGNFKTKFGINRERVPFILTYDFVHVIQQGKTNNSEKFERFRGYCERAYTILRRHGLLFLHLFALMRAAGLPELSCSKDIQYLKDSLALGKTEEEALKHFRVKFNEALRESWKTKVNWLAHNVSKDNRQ
PI3K P110δ, sequence (P27986 whole entry partner, the tested form may be a part): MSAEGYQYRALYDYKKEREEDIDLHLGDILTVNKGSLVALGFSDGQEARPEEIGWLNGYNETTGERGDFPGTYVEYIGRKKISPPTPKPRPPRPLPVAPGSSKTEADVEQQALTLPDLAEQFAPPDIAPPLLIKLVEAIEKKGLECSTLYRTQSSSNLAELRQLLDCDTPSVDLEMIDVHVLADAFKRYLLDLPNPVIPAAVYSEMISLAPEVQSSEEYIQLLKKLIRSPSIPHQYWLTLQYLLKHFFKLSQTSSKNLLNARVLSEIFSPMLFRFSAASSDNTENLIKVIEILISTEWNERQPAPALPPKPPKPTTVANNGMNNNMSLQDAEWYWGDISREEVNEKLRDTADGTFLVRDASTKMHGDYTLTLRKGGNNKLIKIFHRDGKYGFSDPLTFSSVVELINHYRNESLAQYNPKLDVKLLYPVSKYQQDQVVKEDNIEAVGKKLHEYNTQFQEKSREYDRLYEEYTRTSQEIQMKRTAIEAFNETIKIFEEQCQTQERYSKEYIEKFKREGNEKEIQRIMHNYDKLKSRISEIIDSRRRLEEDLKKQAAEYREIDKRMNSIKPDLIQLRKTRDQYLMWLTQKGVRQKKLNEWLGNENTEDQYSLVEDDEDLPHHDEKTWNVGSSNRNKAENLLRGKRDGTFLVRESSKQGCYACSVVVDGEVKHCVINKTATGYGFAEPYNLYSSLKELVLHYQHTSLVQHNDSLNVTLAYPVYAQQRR
PKC beta I, sequence (P05771 whole entry): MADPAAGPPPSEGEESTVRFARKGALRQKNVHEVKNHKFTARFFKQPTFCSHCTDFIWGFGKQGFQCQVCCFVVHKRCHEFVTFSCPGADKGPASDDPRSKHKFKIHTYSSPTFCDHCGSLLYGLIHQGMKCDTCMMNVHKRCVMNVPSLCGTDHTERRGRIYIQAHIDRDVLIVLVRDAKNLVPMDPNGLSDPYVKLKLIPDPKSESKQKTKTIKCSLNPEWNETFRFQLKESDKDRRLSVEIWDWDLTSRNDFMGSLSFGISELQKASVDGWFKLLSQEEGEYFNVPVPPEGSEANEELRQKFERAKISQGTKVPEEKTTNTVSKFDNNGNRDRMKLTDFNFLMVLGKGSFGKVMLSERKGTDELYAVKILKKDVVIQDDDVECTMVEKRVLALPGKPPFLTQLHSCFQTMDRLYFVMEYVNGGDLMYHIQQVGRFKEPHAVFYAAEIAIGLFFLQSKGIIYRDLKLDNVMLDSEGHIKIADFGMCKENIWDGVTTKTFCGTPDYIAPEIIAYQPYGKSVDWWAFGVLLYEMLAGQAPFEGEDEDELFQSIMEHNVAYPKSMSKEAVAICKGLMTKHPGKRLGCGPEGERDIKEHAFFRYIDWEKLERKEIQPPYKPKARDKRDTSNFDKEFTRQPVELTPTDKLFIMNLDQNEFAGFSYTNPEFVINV
PKB beta, sequence (P31751 whole entry): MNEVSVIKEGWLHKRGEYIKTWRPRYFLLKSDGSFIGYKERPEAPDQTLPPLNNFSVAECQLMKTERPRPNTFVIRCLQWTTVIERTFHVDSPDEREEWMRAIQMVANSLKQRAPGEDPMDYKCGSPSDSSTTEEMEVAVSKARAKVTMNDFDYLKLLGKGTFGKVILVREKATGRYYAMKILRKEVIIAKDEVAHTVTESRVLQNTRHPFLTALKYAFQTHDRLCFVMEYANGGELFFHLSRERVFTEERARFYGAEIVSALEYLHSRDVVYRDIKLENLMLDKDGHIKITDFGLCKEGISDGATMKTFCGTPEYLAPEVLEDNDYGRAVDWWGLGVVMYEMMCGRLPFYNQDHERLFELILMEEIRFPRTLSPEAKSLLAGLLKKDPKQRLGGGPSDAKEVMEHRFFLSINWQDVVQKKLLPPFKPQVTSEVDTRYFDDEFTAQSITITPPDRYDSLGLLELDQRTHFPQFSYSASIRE
PKC beta II, sequence (P05771 1-673 isoform P05771-2): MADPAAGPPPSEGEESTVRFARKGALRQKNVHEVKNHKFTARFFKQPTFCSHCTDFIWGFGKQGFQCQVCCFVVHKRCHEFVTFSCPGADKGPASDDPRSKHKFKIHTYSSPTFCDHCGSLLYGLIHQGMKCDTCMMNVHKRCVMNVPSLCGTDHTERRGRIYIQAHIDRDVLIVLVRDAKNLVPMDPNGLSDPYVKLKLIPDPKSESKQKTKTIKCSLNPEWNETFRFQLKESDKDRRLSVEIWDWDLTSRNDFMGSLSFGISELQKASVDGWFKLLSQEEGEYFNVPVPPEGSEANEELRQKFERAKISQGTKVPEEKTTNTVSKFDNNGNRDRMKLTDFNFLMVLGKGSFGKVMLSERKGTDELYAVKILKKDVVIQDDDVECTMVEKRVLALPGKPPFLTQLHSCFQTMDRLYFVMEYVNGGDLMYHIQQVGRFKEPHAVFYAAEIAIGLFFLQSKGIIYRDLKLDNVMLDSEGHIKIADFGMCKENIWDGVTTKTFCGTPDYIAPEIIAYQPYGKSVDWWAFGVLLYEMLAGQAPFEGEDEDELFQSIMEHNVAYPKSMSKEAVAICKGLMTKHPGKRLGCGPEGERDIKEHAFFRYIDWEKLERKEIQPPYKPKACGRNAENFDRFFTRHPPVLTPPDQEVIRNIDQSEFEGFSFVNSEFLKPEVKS
PKB gamma, sequence (Q9Y243 whole entry): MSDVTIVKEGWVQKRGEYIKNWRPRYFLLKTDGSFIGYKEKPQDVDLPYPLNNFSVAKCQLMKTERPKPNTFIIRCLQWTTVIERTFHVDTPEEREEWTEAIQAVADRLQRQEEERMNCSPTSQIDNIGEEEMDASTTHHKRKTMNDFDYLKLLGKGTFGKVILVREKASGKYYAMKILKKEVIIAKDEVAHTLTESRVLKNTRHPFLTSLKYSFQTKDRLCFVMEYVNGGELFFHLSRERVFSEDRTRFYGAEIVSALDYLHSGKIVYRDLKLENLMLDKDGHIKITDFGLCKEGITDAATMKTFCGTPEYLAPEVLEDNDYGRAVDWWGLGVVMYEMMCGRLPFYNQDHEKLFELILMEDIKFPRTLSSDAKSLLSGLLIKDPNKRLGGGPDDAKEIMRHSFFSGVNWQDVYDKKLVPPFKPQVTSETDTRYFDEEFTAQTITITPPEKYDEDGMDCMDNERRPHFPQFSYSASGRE

Dend 10-10(4) whose RSKAKNPLYR peptides are entirely D-amino acids and pegylated with two ethylene glycol units [Dend 10-10(4)DP]
Percentage (%) kinase inhibition PI3K P110δ (PI3K P110δ; dendrimer conc. 1 μM): 39%
Percentage (%) kinase inhibition PI3K P110δ (PI3K P110δ; dendrimer conc. 2 μM): 56%
Percentage (%) kinase inhibition PI3K P110δ (PI3K P110δ; dendrimer conc. 250 nm): 9%
Percentage (%) kinase inhibition PI3K P110δ (PI3K P110δ; dendrimer conc. 500 nm): 25%
% Kinase inhibition MEK1 (MEK1 (h); 20 μM, relative to control): 90%
Percentage (%) kinase inhibition MEK1 (MEK1 (h); dendrimer conc. 1 μM): 76%
Percentage (%) kinase inhibition MEK1 (MEK1 (h); dendrimer conc. 2 μM): 88%
Percentage (%) kinase inhibition MEK1 (MEK1 (h); dendrimer conc. 250 nm): 2%
Percentage (%) kinase inhibition MEK1 (MEK1 (h); dendrimer conc. 500 nm): 34%
% Kinase inhibition PKB beta (PKB beta; 20 μM, relative to control): 85%
Percentage (%) kinase inhibition PKB beta (PKB beta; dendrimer conc. 1 μM): 68%
Percentage (%) kinase inhibition PKB beta (PKB beta; dendrimer conc. 2 μM): 70%
Percentage (%) kinase inhibition PKB beta (PKB beta; dendrimer conc. 250 nm): 53%
Percentage (%) kinase inhibition PKB beta (PKB beta; dendrimer conc. 500 nm): 66%
% Kinase inhibition PKB gamma (PKB gamma; 20 μM, relative to control): 96%
Percentage (%) kinase inhibition PKB gamma (PKB gamma; dendrimer conc. 1 μM): 93%
Percentage (%) kinase inhibition PKB gamma (PKB gamma; dendrimer conc. 2 μM): 92%
Percentage (%) kinase inhibition PKB gamma (PKB gamma; dendrimer conc. 250 nm): 94%
Percentage (%) kinase inhibition PKB gamma (PKB gamma; dendrimer conc. 500 nm): 98%
% Kinase inhibition PKC alpha (PKC alpha; 20 μM, relative to control): 98%
Percentage (%) kinase inhibition PKC alpha (PKC alpha; dendrimer conc. 1 μM): 83%
Percentage (%) kinase inhibition PKC alpha (PKC alpha; dendrimer conc. 2 μM): 98%
Percentage (%) kinase inhibition PKC alpha (PKC alpha; dendrimer conc. 250 nm): 23%
Percentage (%) kinase inhibition PKC alpha (PKC alpha; dendrimer conc. 500 nm): 45%
% Kinase inhibition PKC beta I (PKC beta I; 20 μM, relative to control): 98%
Percentage (%) kinase inhibition PKC beta I (PKC beta I; dendrimer conc. 1 μM): 80%
Percentage (%) kinase inhibition PKC beta I (PKC beta I; dendrimer conc. 2 μM): 96%
Percentage (%) kinase inhibition PKC beta I (PKC beta I; dendrimer conc. 250 nm): 19%
Percentage (%) kinase inhibition PKC beta I (PKC beta I; dendrimer conc. 500 nm): 35%
% Kinase inhibition PKC beta II (PKC beta II; 20 μM, relative to control): 83%
Percentage (%) kinase inhibition PKC beta II (PKC beta II; dendrimer conc. 1 μM): 82%
Percentage (%) kinase inhibition PKC beta II (PKC beta II; dendrimer conc. 2 μM): 95%
Percentage (%) kinase inhibition PKC beta II (PKC beta II; dendrimer conc. 250 nm): 22%
Percentage (%) kinase inhibition PKC beta II (PKC beta II; dendrimer conc. 500 nm): 44%
inhibition of proliferation of HT29 cells [1]: substantially greater inhibition of proliferation

CC(C)C[C@H](NC(=O)[C@@H]1CCCN1C(=O)[C@H](CC(N)=O)NC(=O)[C@H](CCCCN)NC(=O)[C@H](C)NC(=O)[C@H](CCCCN)NC(=O)[C@H](CO)NC(=O)[C@@H](N)CCCNC(=N)N)C(=O)N[C@@H](Cc1ccc(O)cc1)C(=O)N[C@@H](CCCNC(=N)N)C(=O)NCCCC[C@H](NC(=O)[C@H](CCCCNC(=O)[C@H](CCCCNC(=O)[C@H](CCCNC(=N)N)NC(=O)[C@H](Cc1ccc(O)cc1)NC(=O)[C@H](CC(C)C)NC(=O)[C@@H]1CCCN1C(=O)[C@H](CC(N)=O)NC(=O)[C@H](CCCCN)NC(=O)[C@H](C)NC(=O)[C@H](CCCCN)NC(=O)[C@H](CO)NC(=O)[C@@H](N)CCCNC(=N)N)NC(=O)[C@H](CCCNC(=N)N)NC(=O)[C@H](Cc1ccc(O)cc1)NC(=O)[C@H](CC(C)C)NC(=O)[C@@H]1CCCN1C(=O)[C@H](CC(N)=O)NC(=O)[C@H](CCCCN)NC(=O)[C@H](C)NC(=O)[C@H](CCCCN)NC(=O)[C@H](CO)NC(=O)[C@@H](N)CCCNC(=N)N)NC(=O)[C@H](CCCCNC(=O)[C@H](CCCNC(=N)N)NC(=O)[C@H](Cc1ccc(O)cc1)NC(=O)[C@H](CC(C)C)NC(=O)[C@@H]1CCCN1C(=O)[C@H](CC(N)=O)NC(=O)[C@H](CCCCN)NC(=O)[C@H](C)NC(=O)[C@H](CCCCN)NC(=O)[C@H](CO)NC(=O)[C@@H](N)CCCNC(=N)N)NC(=O)[C@H](CCCNC(=N)N)NC(=O)[C@H](Cc1ccc(O)cc1)NC(=O)[C@H](CC(C)C)NC(=O)[C@@H]1CCCN1C(=O)[C@H](CC(N)=O)NC(=O)[C@H](CCCCN)NC(=O)[C@H](C)NC(=O)[C@H](CCCCN)NC(=O)[C@H](CO)NC(=O)[C@@H](N)CCCNC(=N)N)C(=O)NCCCC[C@H](NC(=O)[C@H](CCCCNC(=O)[C@H](CCCNC(=N)N)NC(=O)[C@H](Cc1ccc(O)cc1)NC(=O)[C@H](CC(C)C)NC(=O)[C@@H]1CCCN1C(=O)[C@H](CC(N)=O)NC(=O)[C@H](CCCCN)NC(=O)[C@H](C)NC(=O)[C@H](CCCCN)NC(=O)[C@H](CO)NC(=O)[C@@H](N)CCCNC(=N)N)NC(=O)[C@H](CCCCNC(=O)[C@H](CCCCNC(=O)[C@H](CCCNC(=N)N)NC(=O)[C@H](Cc1ccc(O)cc1)NC(=O)[C@H](CC(C)C)NC(=O)[C@@H]1CCCN1C(=O)[C@H](CC(N)=O)NC(=O)[C@H](CCCCN)NC(=O)[C@H](C)NC(=O)[C@H](CCCCN)NC(=O)[C@H](CO)NC(=O)[C@@H](N)CCCNC(=N)N)NC(=O)[C@H](CCCNC(=N)N)NC(=O)[C@H](Cc1ccc(O)cc1)NC(=O)[C@H](CC(C)C)NC(=O)[C@@H]1CCCN1C(=O)[C@H](CC(N)=O)NC(=O)[C@H](CCCCN)NC(=O)[C@H](C)NC(=O)[C@H](CCCCN)NC(=O)[C@H](CO)NC(=O)[C@@H](N)CCCNC(=N)N)NC(=O)[C@H](CCCCNC(=O)[C@H](CCCNC(=N)N)NC(=O)[C@H](Cc1ccc(O)cc1)NC(=O)[C@H](CC(C)C)NC(=O)[C@@H]1CCCN1C(=O)[C@H](CC(N)=O)NC(=O)[C@H](CCCCN)NC(=O)[C@H](C)NC(=O)[C@H](CCCCN)NC(=O)[C@H](CO)NC(=O)[C@@H](N)CCCNC(=N)N)NC(=O)[C@H](CCCNC(=N)N)NC(=O)[C@H](Cc1ccc(O)cc1)NC(=O)[C@H](CC(C)C)NC(=O)[C@@H]1CCCN1C(=O)[C@H](CC(N)=O)NC(=O)[C@H](CCCCN)NC(=O)[C@H](C)NC(=O)[C@H](CCCCN)NC(=O)[C@H](CO)NC(=O)[C@@H](N)CCCNC(=N)N)C(=O)NCCC(N)=O [Dend 10-10(4)]
inhibition at 1 µM (PI3K P110δ; dendrimer conc. 1 μM, read-out: Percentage (%) kinase inhibition PI3K P110δ): 56%
inhibition at 1 µM (MEK1 (h); dendrimer conc. 1 μM, read-out: Percentage (%) kinase inhibition MEK1): 83%
inhibition at 1 µM (PKB beta; dendrimer conc. 1 μM, read-out: Percentage (%) kinase inhibition PKB beta): 70%
inhibition at 1 µM (PKB gamma; dendrimer conc. 1 μM, read-out: Percentage (%) kinase inhibition PKB gamma): 99%
inhibition at 1 µM (PKC alpha; dendrimer conc. 1 μM, read-out: Percentage (%) kinase inhibition PKC alpha): 78%
inhibition at 1 µM (PKC beta I; dendrimer conc. 1 μM, read-out: Percentage (%) kinase inhibition PKC beta I): 67%
inhibition at 1 µM (PKC beta II; dendrimer conc. 1 μM, read-out: Percentage (%) kinase inhibition PKC beta II): 75%
dendrimer concentration required for total kill, HT29 cells [1]: 10 µM
inhibition of proliferation of HT29 cells [1]: inhibited
